Measured values: ChEMBL document CHEMBL1201862, “PubChem BioAssay data set” (2004)
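48-hour exposure; five concentrations; linearly interpolated endpoints. GI50: concentration for 50% inhibition of growth.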 Active and inactive are the calls of the source. Cut-off read from the data, not from the text of the source: active = GI50 up to about 1.1 µM and inactive = higher.

Legend:
Assay in all cases: DTP human tumour cell line panel, 48 h
[1] = tested on: SK-OV-3
[2] = tested on: RXF 393
[3] = tested on: OVCAR-8
[4] = tested on: KM-20L2
[5] = tested on: NCI-H226
[6] = tested on: CCRF-CEM
[7] = tested on: M19-MEL
[8] = tested on: CAKI-1
[9] = tested on: OVCAR-5
[10] = tested on: SF-539
[11] = tested on: COLO 205
[12] = tested on: Malme-3M
[13] = tested on: A498
[14] = tested on: LXFL 529
[15] = tested on: SW-620
[16] = tested on: SN12C
[17] = tested on: KM12
[18] = tested on: DLD-1
[19] = tested on: HCT-15
[20] = tested on: LOX IMVI
[21] = tested on: OVCAR-3
[22] = tested on: SK-MEL-2
[23] = tested on: XF498
[24] = tested on: RPMI-8226
[25] = tested on: DMS-114
[26] = tested on: RXF 631
[27] = tested on: M14
[28] = tested on: HOP-92
[29] = tested on: U-251
[30] = tested on: TK-10
[31] = tested on: SR
[32] = tested on: UACC-62
[33] = tested on: ACHN
[34] = tested on: SF-295
[35] = tested on: SF-268
[36] = tested on: UACC-257
[37] = tested on: HCT-116
[38] = tested on: NCI-H522
[39] = tested on: IGROV-1
[40] = tested on: HL-60
[41] = tested on: HOP-62
[42] = tested on: SK-MEL-28
[43] = tested on: SNB-78
[44] = tested on: DMS-273
[45] = tested on: SK-MEL-5
[46] = tested on: K562
[47] = tested on: HOP-18
[48] = tested on: 786-0
[49] = tested on: UO-31
[50] = tested on: HT-29
[51] = tested on: A549
[52] = tested on: OVCAR-4
[53] = tested on: NCI-H460
[54] = tested on: EKVX
[55] = tested on: SNB-75
[56] = tested on: NCI-H23
[57] = tested on: HCC 2998
[58] = tested on: SNB-19
[59] = tested on: MOLT-4

COc1ccc(C(=O)Nc2ccn(CCOC(=O)c3ccc(OC)cc3)c(=O)n2)cc1
GI50 [1]: > 100 µM (inactive)
GI50 [2]: 20.1 µM (inactive)
GI50 [3]: > 100 µM (inactive)
GI50 [4]: > 100 µM (inactive)
GI50 [5]: > 100 µM (inactive)
GI50 [6]: > 100 µM (inactive)
GI50 [7]: > 100 µM (inactive)
GI50 [8]: > 100 µM (inactive)
GI50 [9]: > 100 µM (inactive)
GI50 [10]: > 100 µM (inactive)
GI50 [11]: > 100 µM (inactive)
GI50 [12]: > 100 µM (inactive)
GI50 [13]: 93.3 µM (inactive)
GI50 [14]: > 100 µM (inactive)
GI50 [15]: > 100 µM (inactive)
GI50 [16]: > 100 µM (inactive)
GI50 [17]: > 100 µM (inactive)
GI50 [18]: > 100 µM (inactive)
GI50 [19]: > 100 µM
GI50 [20]: > 100 µM (inactive)
GI50 [21]: > 100 µM (inactive)
GI50 [22]: 47.3 µM (inactive)
GI50 [23]: > 100 µM (inactive)
GI50 [24]: > 100 µM (inactive)
GI50 [25]: > 100 µM (inactive)
GI50 [26]: > 100 µM (inactive)
GI50 [27]: > 100 µM (inactive)
GI50 [28]: 63 µM (inactive)
GI50 [29]: 86.7 µM (inactive)
GI50 [30]: > 100 µM (inactive)
GI50 [31]: > 100 µM (inactive)
GI50 [32]: > 100 µM (inactive)
GI50 [33]: > 100 µM (inactive)
GI50 [34]: 58.9 µM (inactive)
GI50 [35]: 43.9 µM (inactive)
GI50 [36]: > 100 µM (inactive)
GI50 [37]: > 100 µM (inactive)
GI50 [38]: 46.1 µM (inactive)
GI50 [39]: > 100 µM (inactive)
GI50 [40]: > 100 µM (inactive)
GI50 [41]: 51.1 µM (inactive)
GI50 [42]: > 100 µM (inactive)
GI50 [43]: 76.2 µM (inactive)
GI50 [44]: > 100 µM (inactive)
GI50 [45]: > 100 µM (inactive)
GI50 [46]: > 100 µM (inactive)
GI50 [47]: > 100 µM (inactive)
GI50 [48]: > 100 µM (inactive)
GI50 [49]: 76.2 µM (inactive)
GI50 [50]: > 100 µM (inactive)
GI50 [51]: > 100 µM (inactive)
GI50 [52]: > 100 µM (inactive)
GI50 [53]: > 100 µM (inactive)
GI50 [54]: > 100 µM (inactive)
GI50 [55]: > 100 µM (inactive)

COc1ccccc1NC(=O)CC(=O)n1nc(-c2ccccc2)c(/N=N/c2ccccc2[N+](=O)[O-])c1-c1ccccc1
GI50 [56]: 98.4 µM (inactive)
GI50 [1]: > 100 µM (inactive)
GI50 [2]: 44.7 µM (inactive)
GI50 [3]: > 100 µM (inactive)
GI50 [4]: > 100 µM (inactive)
GI50 [5]: 0.612 µM (active)
GI50 [6]: > 100 µM (inactive)
GI50 [7]: 51.2 µM (inactive)
GI50 [57]: 70 µM (inactive)
GI50 [8]: > 100 µM (inactive)
GI50 [9]: 64.1 µM (inactive)
GI50 [10]: > 100 µM (inactive)
GI50 [11]: 95.5 µM (inactive)
GI50 [12]: > 100 µM (inactive)
GI50 [14]: 83.2 µM (inactive)
GI50 [15]: > 100 µM (inactive)
GI50 [16]: > 100 µM (inactive)
GI50 [17]: 36.1 µM (inactive)
GI50 [18]: 42.3 µM (inactive)
GI50 [20]: > 100 µM (inactive)
GI50 [21]: 69 µM (inactive)
GI50 [22]: > 100 µM (inactive)
GI50 [23]: > 100 µM (inactive)
GI50 [24]: 74.5 µM (inactive)
GI50 [25]: 25.6 µM (inactive)
GI50 [26]: > 100 µM (inactive)
GI50 [27]: > 100 µM (inactive)
GI50 [28]: 81.7 µM (inactive)
GI50 [29]: 56.5 µM (inactive)
GI50 [30]: > 100 µM (inactive)
GI50 [31]: > 100 µM (inactive)
GI50 [32]: > 100 µM (inactive)
GI50 [33]: 32.2 µM (inactive)
GI50 [34]: > 100 µM (inactive)
GI50 [35]: 95.3 µM (inactive)
GI50 [36]: > 100 µM (inactive)
GI50 [37]: 71.6 µM (inactive)
GI50 [38]: > 100 µM (inactive)
GI50 [39]: > 100 µM (inactive)
GI50 [40]: > 100 µM (inactive)
GI50 [41]: > 100 µM (inactive)
GI50 [42]: 30 µM (inactive)
GI50 [43]: > 100 µM (inactive)
GI50 [44]: > 100 µM (inactive)
GI50 [45]: 94.4 µM (inactive)
GI50 [46]: 80.7 µM (inactive)
GI50 [58]: > 100 µM (inactive)
GI50 [47]: > 100 µM (inactive)
GI50 [48]: > 100 µM (inactive)
GI50 [49]: 38.4 µM (inactive)
GI50 [50]: 25.2 µM (inactive)
GI50 [51]: > 100 µM (inactive)
GI50 [52]: > 100 µM (inactive)
GI50 [53]: > 100 µM (inactive)
GI50 [59]: 64.7 µM (inactive)
GI50 [54]: 44.5 µM (inactive)
GI50 [55]: 17.8 µM (inactive)
